Numbers after ± are expanded uncertainties.
How the values were obtained:
[1] = 101.33 kPa, Liquid, Vibrating tube method
[2] = refractive index (Na D-line) (dimensionless); settings: 101.33 kPa, Liquid, Standard Abbe refractometry
[3] = activity coefficient (dimensionless); of the first substance listed, at infinite dilution; xn = mol fraction of the nth substance listed; settings: 100 kPa, Liquid, Chromatography, x1 = 0

Row | activity coefficient ([3]; 308.15 K) | activity coefficient ([3]; 313.15 K) | activity coefficient ([3]; 323.15 K) | activity coefficient ([3]; 333.15 K) | SMILES | also measured
1 |  |  |  |  | CCn1cc[n+](C)c1.COCCOCCOS(=O)(=O)[O-] [1-ethyl-3-methylimidazolium 2-(2-methoxyethoxy) ethylsulfate] | mass density ([1]; 308.2 K): 1230.4 ± 1.3 kg/m3; mass density ([1]; 313.2 K): 1226.21 ± 1.3 kg/m3; mass density ([1]; 323.2 K): 1219.6 ± 1.3 kg/m3; mass density ([1]; 333.2 K): 1213.66 ± 1.3 kg/m3; refractive index ([2]; 308.2 K): 1.47929 ± 0.00051; refractive index ([2]; 313.2 K): 1.47565 ± 0.00051; refractive index ([2]; 323.2 K): 1.47281 ± 0.00051; refractive index ([2]; 333.2 K): 1.46995 ± 0.00051
2 | 71.3 ± 4.7 | 71.7 ± 3.2 | 68.6 ± 4.8 | 65.6 ± 6.1 | C=CCCCCC [1-heptene] + CCn1cc[n+](C)c1.COCCOCCOS(=O)(=O)[O-] | 
3 | 9.61 ± 0.48 | 9.76 ± 0.56 | 10.1 ± 0.83 | 10.3 ± 1 | C#CCCCCC [1-heptyne] + CCn1cc[n+](C)c1.COCCOCCOS(=O)(=O)[O-] | 
4 | 6.05 ± 0.32 | 6.22 ± 0.38 | 6.49 ± 0.56 | 6.73 ± 0.65 | C#CCCCC [1-hexyne] + CCn1cc[n+](C)c1.COCCOCCOS(=O)(=O)[O-] | 
5 | 168 ± 7.6 | 168 ± 9.1 | 160 ± 7.1 | 149 ± 8.9 | C=CCCCCCCC [1-nonene] + CCn1cc[n+](C)c1.COCCOCCOS(=O)(=O)[O-] | 
6 | 23.9 ± 1.1 | 24.7 ± 1.1 | 25.7 ± 1.9 | 26.4 ± 2.4 | C#CCCCCCCC [1-nonyne] + CCn1cc[n+](C)c1.COCCOCCOS(=O)(=O)[O-] | 
7 | 16.4 ± 0.7 | 16.7 ± 0.9 | 17.1 ± 1.3 | 17.4 ± 1.7 | C#CCCCCCC [1-octyne] + CCn1cc[n+](C)c1.COCCOCCOS(=O)(=O)[O-] | 
8 | 26.1 ± 2.4 | 26.5 ± 1.5 | 26.3 ± 2 | 25.4 ± 2 | C=CCCC [1-pentene] + CCn1cc[n+](C)c1.COCCOCCOS(=O)(=O)[O-] | 
9 | 3.62 ± 0.19 | 3.74 ± 0.25 | 3.98 ± 0.4 | 4.13 ± 0.4 | C#CCCC [1-pentyne] + CCn1cc[n+](C)c1.COCCOCCOS(=O)(=O)[O-] | 
10 | 2.31 ± 0.12 | 2.33 ± 0.15 | 2.41 ± 0.18 | 2.48 ± 0.22 | c1ccccc1 [benzene] + CCn1cc[n+](C)c1.COCCOCCOS(=O)(=O)[O-] | 
11 | 60.3 ± 2.9 | 58.7 ± 3.2 | 54.1 ± 3.8 | 50.6 ± 5 | C1CCCCCC1 [cycloheptane] + CCn1cc[n+](C)c1.COCCOCCOS(=O)(=O)[O-] | 
12 | 45.4 ± 2.1 | 45 ± 2.9 | 41.5 ± 3.2 | 38.8 ± 4.1 | C1CCCCC1 [cyclohexane] + CCn1cc[n+](C)c1.COCCOCCOS(=O)(=O)[O-] | 
13 | 82.6 ± 3.7 | 79.8 ± 3.6 | 73.4 ± 4.3 | 68.2 ± 6.2 | C1CCCCCCC1 [cyclooctane] + CCn1cc[n+](C)c1.COCCOCCOS(=O)(=O)[O-] | 
14 | 27.1 ± 1.3 | 26 ± 1.5 | 24.1 ± 2 | 22.8 ± 1.4 | C1CCCC1 [cyclopentane] + CCn1cc[n+](C)c1.COCCOCCOS(=O)(=O)[O-] | 
15 | 0.719 ± 0.032 | 0.705 ± 0.033 | 0.664 ± 0.03 | 0.666 ± 0.029 | CCO [ethanol] + CCn1cc[n+](C)c1.COCCOCCOS(=O)(=O)[O-] | 
16 | 8.04 ± 0.38 | 8.04 ± 0.47 | 8.06 ± 0.61 | 8.17 ± 0.74 | CCc1ccccc1 [ethylbenzene] + CCn1cc[n+](C)c1.COCCOCCOS(=O)(=O)[O-] | 
17 | 158 ± 7.1 | 158 ± 8 | 147 ± 6.8 | 139 ± 6.2 | CCCCCCC [heptane] + CCn1cc[n+](C)c1.COCCOCCOS(=O)(=O)[O-] | 
18 | 45.6 ± 2.4 | 44.7 ± 2.2 | 43.4 ± 4.1 | 40.3 ± 3.2 | C=CCCCC [hex-1-ene] + CCn1cc[n+](C)c1.COCCOCCOS(=O)(=O)[O-] | 
19 | 103 ± 4.9 | 102 ± 4.9 | 94 ± 5.2 | 85.7 ± 7.4 | CCCCCC [hexane] + CCn1cc[n+](C)c1.COCCOCCOS(=O)(=O)[O-] | 
20 | 0.39 ± 0.027 | 0.392 ± 0.027 | 0.374 ± 0.031 | 0.369 ± 0.027 | CO [methanol] + CCn1cc[n+](C)c1.COCCOCCOS(=O)(=O)[O-] | 
21 | 71.9 ± 3.2 | 70.6 ± 3.3 | 65.8 ± 4.1 | 62.3 ± 5.7 | CC1CCCCC1 [methylcyclohexane] + CCn1cc[n+](C)c1.COCCOCCOS(=O)(=O)[O-] | 
22 | 292 ± 16 | 303 ± 14 | 288 ± 20 | 281 ± 13 | CCCCCCCCC [nonane] + CCn1cc[n+](C)c1.COCCOCCOS(=O)(=O)[O-] | 
23 | 114 ± 5.6 | 113 ± 6.1 | 107 ± 5.6 | 101 ± 8 | C=CCCCCCC [oct-1-ene] + CCn1cc[n+](C)c1.COCCOCCOS(=O)(=O)[O-] | 
24 | 215 ± 9.9 | 216 ± 9.9 | 212 ± 10 | 202 ± 10 | CCCCCCCC [octane] + CCn1cc[n+](C)c1.COCCOCCOS(=O)(=O)[O-] | 
25 | 65.8 ± 4.5 | 65.6 ± 4 | 60.8 ± 2.9 | 59 ± 5.1 | CCCCC [pentane] + CCn1cc[n+](C)c1.COCCOCCOS(=O)(=O)[O-] | 
26 | 1.01 ± 0.05 | 0.989 ± 0.056 | 0.942 ± 0.055 | 0.913 ± 0.063 | CCCO [propan-1-ol] + CCn1cc[n+](C)c1.COCCOCCOS(=O)(=O)[O-] | 

Row | SMILES | activity coefficient ([3]; 308.15 K) | activity coefficient ([3]; 313.15 K) | activity coefficient ([3]; 323.15 K) | activity coefficient ([3]; 333.15 K) | also measured
27 | CC(C)=O [acetone] + CCn1cc[n+](C)c1.COCCOCCOS(=O)(=O)[O-] | 1.42 ± 0.07 | 1.46 ± 0.07 | 1.47 ± 0.11 | 1.51 ± 0.13 | 
28 | CCC(C)=O [butanone] + CCn1cc[n+](C)c1.COCCOCCOS(=O)(=O)[O-] | 2.33 ± 0.12 | 2.34 ± 0.13 | 2.37 ± 0.18 | 2.42 ± 0.21 | 
29 | Cc1ccccc1 [toluene] + CCn1cc[n+](C)c1.COCCOCCOS(=O)(=O)[O-] | 4.43 ± 0.21 | 4.45 ± 0.27 | 4.51 ± 0.33 | 4.62 ± 0.45 | 
